Data on one compound can be found in patent publication US9095535B2, “GABA release-regulating agent in cerebellum” (KOREA INSTITUTE OF SCIENCE AND TECHNOLOGY, priority 2009, dated 2015).

For one assay, the target named is T1, Best1 channel (Mus musculus, UniProt O88870).
T1 construct: from tissue; host or cells: mouse cerebellar slices / sections (Bergmann glial cells)
T1 sequence (O88870 1-551): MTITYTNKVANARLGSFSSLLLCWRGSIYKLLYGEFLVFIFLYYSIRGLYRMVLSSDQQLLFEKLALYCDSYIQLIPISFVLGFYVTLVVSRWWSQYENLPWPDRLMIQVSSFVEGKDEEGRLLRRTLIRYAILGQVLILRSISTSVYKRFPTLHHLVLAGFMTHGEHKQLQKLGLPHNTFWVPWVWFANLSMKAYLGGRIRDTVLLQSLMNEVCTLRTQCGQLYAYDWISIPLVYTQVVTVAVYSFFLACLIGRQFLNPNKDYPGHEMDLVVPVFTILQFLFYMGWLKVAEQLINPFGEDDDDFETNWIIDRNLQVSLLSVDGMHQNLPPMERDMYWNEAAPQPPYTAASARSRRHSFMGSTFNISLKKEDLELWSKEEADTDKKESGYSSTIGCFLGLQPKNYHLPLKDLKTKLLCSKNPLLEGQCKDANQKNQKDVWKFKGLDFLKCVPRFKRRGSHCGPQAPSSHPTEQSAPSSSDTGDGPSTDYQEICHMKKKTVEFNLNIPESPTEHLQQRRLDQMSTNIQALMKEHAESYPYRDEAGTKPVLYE
The assay is classed as cell-based. The settings on record: NPPB 50 μM; naïve GFAP-GFP mice; ramp protocol, Vh=−70 mV. The method, then:
Brain slices were prepared as described in Rossi et al., 2003. For slice recording, either approximately P28 days old or more than 8 weeks old mice were used. Animals were deeply anesthetized with halothane. After decapitation, the brain was quickly excised from the skull and submerged in ice-cold cutting solution (in mM): 250 Sucrose, 26 NaHCO3, 10 D(+)-Glucose, 4 MgCl2, 3 myo-inositol, 2.5 KCl, 2 Sodium pyruvate, 1.25 NaH2PO4, 0.5 Ascorbic acid 0.1 CaCl2, 1 Kynurenic acid, pH 7.4. All solutions were gas-treated with 95% O2-5% CO2. After trimming both sides of vermis, several parasagittal slices with […] thicknesses containing cerebellar lobes were cut using a microtome (Leica VT 1000) and transferred to extracellular ACSF solution (in mM); 126 NaCl, 24 NaHCO3, 1 NaH2PO4, 2.5 KCl, 2.5 CaCl2, 2 MgCl2, 10 D(+)-Glucose, pH 7.4. Slices were incubated for one hour at least at room temperature.
For recording, slices were transferred to an electrophysiological recording chamber (RC-26G, Warner Instruments) which is continuously superfused with ASCF (artificial cerebrospinal fluid, sigma) solution (flow rate; 2 ml/min) and controlled by flower controller (Synaptosoft) and a vacuum pump (Charles Austen, model Capex 8C). […] Fluorescence images were viewed with mercury lamp (Olympus, U-RFL-T). […]

The next assay deals with cerebellar granule cells. Nature of the assay: Clomeleon imaging of [Cl−]i in cerebellar granule cells (tonic GABA release). The assay is classed as cell-based, mouse. The following applies: bath application of 10 μM. Here is the method:
B6 wildtype, GFAP-GFP and hGFAP-CreERT2 trangenic mice (SPF room, Center for Neural Science, KIST, Seoul, Korea) were anaesthetized by intraperitoneal injection of 2% avertin (20 μl/g, sigma) and placed in a stereotaxic frame (David Kopf instrument). pSicoR-b1shRNA-mCherry or scrambled virus (Macrogen) was stereo-injected into cerebellar cortex at a rate of 0.2 μl/min (total 2 μl) using syringe pump (Harvard apparatus) and 25 μl syringe (Hamilton company). The coordination of injection site was 1.7 mm from the lambda and the depth was 1.5-1.7 mm from the skull. […]
Clomeleon, based on fluorescence resonance energy transfer (FRET), is a genetically-encoded fluorescent indicator for Cl^− in which chloride-sensitive yellow fluroscent protein fused with chloride-insensitive cyan fluorescent protein via a flexible peptide linker (Kuner and Augustine, 2000). […]
For imaging, two ROIs (Regions of Interest) covering the granule cell layer and the molecular layer were drawn. […] Fluorescence excitation was produced by two consecutive 200 to 500 ms long light pulses at 0.5 Hz and fluorescence emission was alternately collected at each wavelength with a back-illuminated, cooled CCD camera with the on-chip multiplication gain control (Cascade 512B, Photometrics). […]

As to `O=C(O)c1cc([N+](=O)[O-])ccc1NCCCc1ccccc1` [NPPB, 5-nitro-2(3-phenylpropylamino)-benzoic acid], the “Anion current in Bergmann glial cells” value on Best1 channel was “decreased”. Further, in the assay on cerebellar granule cells, the “[Cl−]i in granular cell bodies and parallel fibers” value is reported as “decreased”.
